Literature values in PMC4876928 (Clinical cancer research : an official journal of the …, 2016).

Test system: malignant pleural mesothelioma
Details: MPM previously treated with chemotherapy, second-line; cited from earlier work

SMILES	response rate
Nc1ccn([C@@H]2O[C@H](CO)[C@@H](O)C2(F)F)c(=O)n1 [gemcitabine]	2%
CCC1=C[C@@H]2CN(C1)Cc1c([nH]c3ccccc13)[C@@](C(=O)OC)(c1cc3c(cc1OC)N(C)[C@H]1[C@@](O)(C(=O)OC)[C@H](OC(C)=O)[C@]4(CC)C=CCN5CC[C@]31[C@@H]54)C2 [vinorelbine]	2%
